{"source": "patent US11332459B2", "about": "(TEIJIN PHARMA LIMITED, priority 2017, dated 2022)", "biological_target": "T1, human TRPC6 (Homo sapiens, UniProt Q9Y210)", "T1 construct": "expressed in transfected cells", "T1 sequence (Q9Y210 1-931)": "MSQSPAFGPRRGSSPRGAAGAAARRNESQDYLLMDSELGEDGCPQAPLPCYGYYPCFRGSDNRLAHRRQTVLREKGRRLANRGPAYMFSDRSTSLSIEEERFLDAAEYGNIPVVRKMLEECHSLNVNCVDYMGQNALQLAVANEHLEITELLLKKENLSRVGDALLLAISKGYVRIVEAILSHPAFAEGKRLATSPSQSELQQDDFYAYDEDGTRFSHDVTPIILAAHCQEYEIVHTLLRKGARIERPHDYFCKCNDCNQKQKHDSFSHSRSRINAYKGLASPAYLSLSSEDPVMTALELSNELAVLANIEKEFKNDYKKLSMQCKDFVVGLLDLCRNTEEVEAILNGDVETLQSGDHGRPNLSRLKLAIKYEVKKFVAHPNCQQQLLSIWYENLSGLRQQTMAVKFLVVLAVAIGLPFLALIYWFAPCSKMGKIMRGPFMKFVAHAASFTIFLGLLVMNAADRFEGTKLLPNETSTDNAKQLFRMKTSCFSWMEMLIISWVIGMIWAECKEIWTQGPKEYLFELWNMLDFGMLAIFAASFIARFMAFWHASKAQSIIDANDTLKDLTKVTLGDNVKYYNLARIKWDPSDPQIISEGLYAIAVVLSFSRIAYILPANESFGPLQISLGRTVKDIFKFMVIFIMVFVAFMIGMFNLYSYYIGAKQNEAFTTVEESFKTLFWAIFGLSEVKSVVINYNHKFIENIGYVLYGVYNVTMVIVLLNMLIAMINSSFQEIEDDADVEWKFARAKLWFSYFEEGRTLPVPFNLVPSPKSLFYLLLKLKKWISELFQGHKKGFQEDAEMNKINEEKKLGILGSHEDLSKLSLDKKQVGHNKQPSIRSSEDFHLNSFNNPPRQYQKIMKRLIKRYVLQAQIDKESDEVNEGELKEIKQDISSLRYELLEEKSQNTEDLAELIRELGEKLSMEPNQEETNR", "assay": "TRPC6 calcium flux assay (FLIPR, OAG-stimulated calcium influx)", "format": "cell-based", "conditions": "HEK293 cells stably transfected with human TRPC6, read-out: hTRPC6 Potency", "summary_of_the_method": "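IC50 derived by plotting background-corrected peak fluorescence (180 s window, normalized to OAG-triggered signal vs buffer) against dose. Stable human TRPC6 HEK293 line was dye-loaded, exposed to compound 25 min, then challenged with 50 uM final OAG in 2 mM Ca2+ HEPES buffer pH 7.2, 0.5% DMSO.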", "note": "Counter-ions that a name gives are not always drawn.", "data": [{"smiles": "N[C@@H]1CN(c2nc3cc(F)c(F)cc3n2Cc2cccc(OC(F)(F)F)c2)CC[C@H]1F", "note": "[Example 364, (3R,4R)-1-(5,6-difluoro-1-(3-(trifluoromethoxy)benzyl)-1H-benzimidazol-2-yl)-4-fluoro-3-piperidinamine]", "values": [{"measurement": "IC50", "result": 1020, "unit": "nM"}]}, {"smiles": "N[C@@H]1CN(c2nc3cc(F)c(F)cc3n2[C@H]2CCN(C3CCOCC3)C2=O)CC[C@H]1F", "note": "[Example 548, (S)-3-(2-((3R,4R)-3-amino-4-fluoropiperidin-1-yl)-5,6-difluoro-1H-benzo[d]imidazol-1-yl)-1-(tetrahydro-2H-pyran-4-yl)pyrrolidin-2-one]", "values": [{"measurement": "IC50", "result": 382, "unit": "nM"}]}, {"smiles": "N[C@@H]1CN(c2nc3cc(F)c(F)cc3n2CC(=O)N2CCC(C(=O)N3CCCC3)CC2)CC[C@H]1F", "note": "[Example 529, 2-(2-((3R,4R)-3-amino-4-fluoropiperidin-1-yl)-5,6-difluoro-1H-benzo[d]imidazol-1-yl)-1-(4-(pyrrolidine-1-carbonyl)piperidin-1-yl)ethan-1-one]", "values": [{"measurement": "IC50", "result": "> 1750", "unit": "nM"}]}, {"smiles": "N[C@@H]1CN(c2nc3cc(F)ccc3n2Cc2nc(C(F)(F)F)no2)CC[C@H]1F", "note": "[Example 584, (3R,4R)-4-fluoro-1-(5-fluoro-1-((3-(trifluoromethyl)-1,2,4-oxadiazol-5-yl)methyl)-1H-benzo[d]imidazol-2-yl)piperidin-3-amine]", "values": [{"measurement": "IC50", "result": 546, "unit": "nM"}]}, {"smiles": "N#Cc1ccc(Cn2c(N3CCC[C@](N)(CO)C3)nc3ccccc32)nc1", "note": "[Example 105, (R)-6-((2-(3-amino-3-(hydroxymethyl)piperidin-1-yl)-1H-benzo[d]imidazol-1-yl)methyl)nicotinonitrile]", "values": [{"measurement": "IC50", "result": 2480, "unit": "nM"}]}, {"smiles": "Cc1nnc(Cn2c(N3CC[C@@H](F)[C@H](N)C3)nc3ccc(F)cc32)s1", "note": "[Example 561, (3R,4R)-4-fluoro-1-(6-fluoro-1-((5-methyl-1,3,4-thiadiazol-2-yl)methyl)-1H-benzo[d]imidazol-2-yl)piperidin-3-amine]", "values": [{"measurement": "IC50", "result": 19.8, "unit": "nM"}]}, {"smiles": "CN(CC(F)(F)F)C(=O)Cn1c(N2CCC(F)(CN)C2)nc2cc(F)ccc21", "note": "(centres unmarked) [Example 487, 2-(2-(3-(aminomethyl)-3-fluoropyrrolidin-1-yl)-5-fluoro-1H-benzo[d]imidazol-1-yl)-N-methyl-N-(2,2,2-trifluoroethyl)acetamide]", "values": [{"measurement": "IC50", "result": "> 3750", "unit": "nM"}]}, {"smiles": "CN1CCC(n2c(N3CC[C@@H](F)[C@H](N)C3)nc3cc(F)c(F)cc32)C1=O", "note": "(mixture of isomers) [Example 238, 3-(2-((3R,4R)-3-amino-4-fluoropiperidin-1-yl)-5,6-difluoro-1H-benzo[d]imidazol-1-yl)-1-methylpyrrolidin-2-one]", "values": [{"measurement": "IC50", "result": 185, "unit": "nM"}]}, {"smiles": "N#Cc1ccc(Cn2c(N3CC[C@@H](F)[C@H](N)C3)nc3cc(Cl)c(Cl)cc32)nc1", "note": "[Example 43, 6-((2-((3R,4R)-3-amino-4-fluoropiperidin-1-yl)-5,6-dichloro-1H-benzo[d]imidazol-1-yl)methyl)nicotinonitrile]", "values": [{"measurement": "IC50", "result": 0.581, "unit": "nM"}]}, {"smiles": "COc1ccc2nc(N3CCC[C@H](N)C3)n(Cc3ccc(C#N)cc3)c2c1", "note": "[Example 402, (S)-4-((2-(3-aminopiperidin-1-yl)-6-methoxy-1H-benzo[d]imidazol-1-yl)methyl)benzonitrile hydrochloride]", "values": [{"measurement": "IC50", "result": 1.33, "unit": "nM"}]}, {"smiles": "N#Cc1ccc(Cn2c(N3CC[C@@H](F)[C@H](N)C3)nc3nc(C(F)(F)F)ccc32)nc1", "note": "[Example 458, 6-((2-((3R,4R)-3-amino-4-fluoropiperidin-1-yl)-5-(trifluoromethyl)-1H-imidazo[4,5-b]pyridin-1-yl)methyl)nicotinonitrile]", "values": [{"measurement": "IC50", "result": 16.3, "unit": "nM"}]}, {"smiles": "N#Cc1ccc2nc(N3CC[C@H](F)[C@H](N)C3)n(Cc3ncc(Cl)cn3)c2c1", "note": "[Example 203, 2-((3R,4S)-3-amino-4-fluoropiperidin-1-yl)-1-((5-chloropyrimidin-2-yl)methyl)-1H-benzo[d]imidazole-6-carbonitrile]", "values": [{"measurement": "IC50", "result": 598, "unit": "nM"}]}, {"smiles": "N#Cc1ccc(Cn2c(N3CC[C@H](F)[C@H](N)C3)nc3ccc(F)cc32)nc1", "note": "[Example 47, 6-((2-((3R,4S)-3-amino-4-fluoropiperidin-1-yl)-6-fluoro-1H-benzo[d]imidazol-1-yl)methyl)nicotinonitrile hydrochloride]", "values": [{"measurement": "IC50", "result": 0.686, "unit": "nM"}]}, {"smiles": "N#Cc1cnc(Cn2c(N3CCC(F)(F)[C@H](N)C3)nc3ccccc32)cn1", "note": "[Example 199]", "values": [{"measurement": "IC50", "result": 28.1, "unit": "nM"}]}, {"smiles": "N#Cc1ccc(Cn2c(N3CCC(F)(F)[C@H](N)C3)nc3ccc(Cl)cc32)cc1", "note": "[Example 405]", "values": [{"measurement": "IC50", "result": 0.708, "unit": "nM"}]}, {"smiles": "N#Cc1ccc(Cn2c(N3C[C@H]4NCCO[C@@H]4C3)nc3ccccc32)nc1", "note": "[Example 100, 6-((2-((4aR,7aR)-hexahydropyrrolo[3,4-b][1,4]oxazin-6(2H)-yl)-1H-benzo[d]imidazol-1-yl)methyl)nicotinonitrile]", "values": [{"measurement": "IC50", "result": 60, "unit": "nM"}]}, {"smiles": "COC[C@@H]1COCCN1C(=O)Cn1c(N2CC[C@@H](F)[C@H](N)C2)nc2ccc(F)cc21", "note": "[Example 680, 2-(2-((3R,4R)-3-amino-4-fluoropiperidin-1-yl)-6-fluoro-1H-benzo[d]imidazol-1-yl)-1-((R)-3-(methoxymethyl)morpholino) ethan-1-one]", "values": [{"measurement": "IC50", "result": 153, "unit": "nM"}]}, {"smiles": "N#Cc1ccc(Cn2c(N3CCC[C@@]4(CCCCN4)C3)nc3ccccc32)nc1", "note": "[Example 130, 6-((2-((6S)-1,8-diazaspiro[5.5]undecan-8-yl)-1H-benzimidazol-1-yl)methyl)-3-pyridinecarbonitrile]", "values": [{"measurement": "IC50", "result": 269, "unit": "nM"}]}, {"smiles": "N[C@@H]1CN(c2nc3cc(F)c(F)cc3n2C2CCN(c3ccc(Cl)cc3)C2=O)CC[C@H]1F", "note": "(mixture of isomers) [Example 240, 3-(2-((3R,4R)-3-amino-4-fluoropiperidin-1-yl)-5,6-difluoro-1H-benzo[d]imidazol-1-yl)-1-(4-chlorophenyl)pyrrolidin-2-one]", "values": [{"measurement": "IC50", "result": 10.7, "unit": "nM"}]}, {"smiles": "CC(c1ncc(Cl)cn1)n1c(N2CC[C@@H](F)[C@H](N)C2)nc2cc(F)c(F)cc21", "note": "(stereo in doubt) [Example 508, (3R,4R)-1-(1-((R)-1-(5-chloropyrimidin-2-yl)ethyl)-5,6-difluoro-1H-benzo[d]imidazol-2-yl)-4-fluoropiperidin-3-amine]", "values": [{"measurement": "IC50", "result": 112, "unit": "nM"}]}, {"smiles": "C[C@@H](c1ccc(C#N)cc1)n1c(N2CCC[C@H](N)C2)nc2ccccc21", "note": "[Example 314, 4-((S)-1-(2-((S)-3-aminopiperidin-1-yl)-1H-benzo[d]imidazol-1-yl)ethyl)benzonitrile hydrochloride]", "values": [{"measurement": "IC50", "result": "> 50000", "unit": "nM"}]}, {"smiles": "N[C@@H]1CN(c2nc3cc(F)c(F)cc3n2Cc2ccc(C(F)F)cc2)CC[C@H]1F", "note": "[Example 363, (3R,4R)-1-(1-(4-(difluoromethyl)benzyl)-5,6-difluoro-1H-benzimidazol-2-yl)-4-fluoro-3-piperidinamine]", "values": [{"measurement": "IC50", "result": 31.3, "unit": "nM"}]}, {"smiles": "CN(CC(F)(F)F)C(=O)Cn1c(N2CC[C@@H](F)[C@H](N)C2)nc2ccc(F)cc21", "note": "[Example 457, 2-(2-((3R,4R)-3-amino-4-fluoropiperidin-1-yl)-6-fluoro-1H-benzo[d]imidazol-1-yl)-N-methyl-N-(2,2,2-trifluoroethyl)acetamide]", "values": [{"measurement": "IC50", "result": 13.3, "unit": "nM"}]}, {"smiles": "N#CC1CN(C(=O)Cn2c(N3CC[C@@H](F)[C@H](N)C3)nc3cc(F)c(F)cc32)C1", "note": "[Example 426, 1-(2-(2-((3R,4R)-3-amino-4-fluoropiperidin-1-yl)-5,6-difluoro-1H-benzo[d]imidazol-1-yl)acetyl)azetidine-3-carbonitrile]", "values": [{"measurement": "IC50", "result": 933, "unit": "nM"}]}, {"smiles": "COc1ccc2c(c1)nc(N1CC[C@@H](F)[C@H](N)C1)n2CC(=O)N(C)CC(F)(F)F", "note": "[Example 449, 2-(2-((3R,4R)-3-amino-4-fluoropiperidin-1-yl)-5-methoxy-1H-benzo[d]imidazol-1-yl)-N-methyl-N-(2,2,2-trifluoroethyl)acetamide]", "values": [{"measurement": "IC50", "result": 1160, "unit": "nM"}]}, {"smiles": "C[C@@H](c1cc(Cl)ccc1Cl)n1c(N2CC[C@@H](F)[C@H](N)C2)nc2cc(F)c(F)cc21", "note": "[Example 329, (3R,4R)-1-(1-((1S)-1-(2,5-dichlorophenyl)ethyl)-5,6-difluoro-1H-benzimidazol-2-yl)-4-fluoro-3-piperidinamine]", "values": [{"measurement": "IC50", "result": "> 3750", "unit": "nM"}]}, {"smiles": "CN(CC(F)(F)F)C(=O)Cn1c(N2CC[C@@H](F)[C@H](N)C2)nc2cc(F)ccc21", "note": "[Example 460, 2-(2-((3R,4R)-3-amino-4-fluoropiperidin-1-yl)-5-fluoro-1H-benzo[d]imidazol-1-yl)-N-methyl-N-(2,2,2-trifluoroethyl)acetamide]", "values": [{"measurement": "IC50", "result": 24.2, "unit": "nM"}]}, {"smiles": "N#Cc1ccc(Cn2c(N3CCC(F)(F)[C@H](N)C3)nc3c(Cl)cc(Cl)cc32)nc1", "note": "[Example 60, (R)-6-((2-(3-amino-4,4-difluoropiperidin-1-yl)-4,6-dichloro-1H-benzo[d]imidazol-1-yl)methyl)nicotinonitrile]", "values": [{"measurement": "IC50", "result": 0.261, "unit": "nM"}]}, {"smiles": "N#Cc1cnc(Cn2c(N3CC[C@@H](F)[C@H](N)C3)nc3ccccc32)cn1", "note": "[Example 202, 5-((2-((3R,4R)-3-amino-4-fluoropiperidin-1-yl)-1H-benzo[d]imidazol-1-yl)methyl)pyrazine-2-carbonitrile]", "values": [{"measurement": "IC50", "result": 2.14, "unit": "nM"}]}]}
